Data as given in patent publication EP1298214A2, “Plant thioesterases” (Calgene LLC, priority 1990, dated 1991).

How the values were obtained:
[1] = test system: Cuphea C10 acyl-ACP thioesterase; test: Cuphea thioesterase substrate specificity at the hydroxyapatite stage (Example 9A); assay type: biochemical, Cuphea hookeriana; settings: hydroxyapatite stage in purification
Experimental: Following the same general procedures as outlined in Example 1, to assay for C10 thioesterase activity, the following mixture is incubated at 30° for 10-60 min: 50µl sample to be tested in the same or similar "extraction buffer" described in Example 9A, and approximately 250pmol of [^14C]-radiolabeled acyl-ACP substrate, (usually decanoyl-ACP is labeled in the carboxylate group to 50-60µCi/µmol) in a total volume of […], for a final decanoyl-ACP concentration of 0.5-5.0µM, typically 5.0µM. The reaction is stopped by adding 0.5ml 10% (v/v) cold (4°) acetic acid and placing the reaction mixture on ice for a few minutes. The fatty acid product of the hydrolytic enzyme action is extracted away from the unhydrolyzed substrate by adding 2ml diethyl ether and mixing vigorously. The ether is transferred to 5ml scintillation fluid for scintillation counting. Additional ether extracts may be performed to recover remaining traces of product for more accurate quantitation of the activity if desired.
The resulting preparation is then subjected to hydroxyapatite column chromatography. The following method applies to ammonium sulfate fraction from 100g fresh weight of starting seed tissue. The dialyzed ammonium sulfate fraction (35-40ml) is applied to a column of hydroxyapatite (2.5cm x 14cm bed height of Bio-Gel HTP from Bio-Rad Inc.; Richmond, CA, catalog no. 130-0420), equilibrated in 50mM KH2PO4-KOH pH 6.9, 10% (v/v) glycerol, 4mM 2-mercaptoethanol. The column is then washed (flow rate 1.5ml/min throughout) with 280ml of the same buffer. Elution is accomplished with a 580ml linear gradient from these conditions to 350mM KH2PO4-KOH pH 6.9, 10% (v/v) glycerol, 4mM 2-mercaptoethanol, collecting fractions of 12ml volume. The eluted fractions are assayed for hydrolase activity using decanoyl-ACP as substrate. […]
The substrate specificity of Cuphea C10 acyl-ACP thioesterase towards medium-chain acyl-ACP's has been determined at the hydroxyapatite stage in purification, as described in Example 9A: Table 6

[2] = target: T1, pCGN3823 induced E. coli lysate (mature bay thioesterase) (Umbellularia californica, UniProt Q41635); test: Acyl-ACP hydrolysis by lysate of E. coli expressing mature bay thioesterase as lac fusion; assay type: biochemical; settings: Dilution 1/4000, one hour induction with 0.1mM IPTG
T1 construct: the entire mature bay thioesterase protein is expressed as a lac fusion in E. coli cells; made in house
T1 sequence (Q41635 84-382): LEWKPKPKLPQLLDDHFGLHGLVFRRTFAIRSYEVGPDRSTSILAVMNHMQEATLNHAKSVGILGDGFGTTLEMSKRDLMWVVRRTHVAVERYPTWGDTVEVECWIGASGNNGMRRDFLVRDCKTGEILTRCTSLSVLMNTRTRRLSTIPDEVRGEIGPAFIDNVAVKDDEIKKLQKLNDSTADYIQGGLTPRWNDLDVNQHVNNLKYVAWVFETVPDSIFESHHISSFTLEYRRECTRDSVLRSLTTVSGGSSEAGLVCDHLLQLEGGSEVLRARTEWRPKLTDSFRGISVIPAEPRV
Experimental: To assay for C12 thioesterase activity the following mixture is incubated at 30° for 30 min: "buffer" comprising 7mM KH2PO4-KOH pH 8, 20% v/v glycerol, 1mM dithiothreitol (DTT), 0.1% v/v Triton X100; sample to be tested for activity in the same or similar buffer as the "extraction buffer" described in Example 2; and 5µl of ^14C-radiolabeled lauroyl-ACP substrate for a total volume of 100µl and final lauroyl-ACP concentration of 0.5µM. Lauroyl-ACP substrate is prepared according to the method of Rock et al (Methods in Enzymology (1981) 72:397-403), using ACP prepared from Escherichia coli by the method of Rock and Cronan (Methods in Enzymology (1981) 71:341-351). The laurate is radiolabeled in the carboxylate group at a specific radioactivity of 50-60µCi/µmol.
The reaction is stopped by adding 0.5ml cold (0°) 10% v/v acetic acid. The fatty acid product of the hydrolytic enzyme action is extracted away from the unhydrolyzed substrate by adding 1ml diethyl ether and mixing vigorously. After settling for a few minutes the upper ether layer is transferred to 5ml scintillation fluid for determination of radioactivity by liquid scintillation spectrometry. Additional ether extractions may be performed to recover remaining traces of the reaction product for more accurate quantitation of the enzyme activity if desired. The amount of ether-extracted radioactivity is a direct measure of C12-preferring acyl-ACP thioesterase activity, provided the amount of enzyme is not sufficient to hydrolyze more than about 25% of the substrate. With greater activity than this the relationship between radioactivity in the ether layer and the quantity of enzyme becomes markedly nonlinear. The enzyme preparation must then be diluted appropriately to bring the activity into the linear range of the assay.
In addition, the entire mature bay thioesterase protein is expressed as a lac fusion in E. coli cells. […] Digestion at this XbaI site cleaves the coding region immediately 5' of the codon representing the leucine at amino acid position 72. This leucine has been identified as a candidate for the amino terminal residue as described in Example 14A.
An approximately 1200 bp fragment of pCGN3822 cDNA is generated by digestion with XbaI, which cuts at the postulated mature protein start site, as described above, and in the vector sequences flanking the 3' end of the cDNA. The XbaI fragment is cloned on XbaI digest of the minus version of a Bluescribe M13(+/-) (also called pBS+/-) cloning vector (Stratagene; San Diego, CA.). The thioesterase gene clone is inserted such that the mature protein is in reading frame with a portion of the lacZ gene of the Bluescribe vector and under control of the lac promoter. […]

## 14:0-ACP
[1]
  Hydrolysis Activity (mean): 4055 pmol/min
[2]
  Hydrolysis Activity (mean cpm in ether extract): 116 cpm

## 16:0-ACP
[2]
  Hydrolysis Activity (mean cpm in ether extract): 20 cpm

## decanoyl-ACP [10:0-ACP]
[1]
  Hydrolysis Activity (mean): 6950 pmol/min
[2]
  Hydrolysis Activity (mean cpm in ether extract): 0 cpm

## lauroyl-ACP [12:0-ACP]
[1]
  Hydrolysis Activity (mean): 1032 pmol/min
[2]
  Hydrolysis Activity (mean cpm in ether extract): 1840 cpm
